EP4810508A1, “ARABINOSE DERIVATIVE COMPOUND, AND COMPOSITION COMPRISING SAME FOR PREVENTING OR TREATING DEGENERATIVE BRAIN DISEASES” (Digmbio. Inc., priority 2023, dated 2025)
Read-outs that look alike come from different tables or passages of the source.

Experiments:
HRE/Luc/HEK293 cells = assay: HRE (Hypoxia Response Element) luciferase assay; assay type: cell-based, human; settings: for fold induction at 10 µM / fold induction at 100 µM: Homo sapiens; for HRE assay: increase in HRE expression levels by the test substance relative to the vehicle in HRE/Luc/HEK293 cells
Outline: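 HRE-luciferase HEK293 cells in MEM/10% FBS pretreated with compound 6 h, then held under hypoxia (0.1% O2) 18 h; luminescence read after lysis. Scored as fold increase over vehicle, with twofold threshold at 100, 10 or 1 µM.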

male ICR mice [1] = assay: Scopolamine-induced cognitive impairment model: Y-maze test; assay type: in vivo; settings: for percent recovery of cognitive function (Y-maze) at 50 mg/kg: Mus musculus, po, 168 h; for in vivo Y-maze (%): spontaneous alternation, scopolamine 1 mg/kg i.p., compounds 50 mg/kg oral for 7 days, donepezil 5 mg/kg (avg.)
Text: (§1) A memory loss rodent animal model induced by scopolamine intraperitoneal administration is used, and an evaluation method for memory uses a Y-maze test and a passive avoidance test (PAT). Scopolamine is a representative experimental model showing an impairment of cognitive function similar to AD patients by blocking neurotransmitters when administered to an animal as an antagonist of a muscarinic acetylcholine receptor, and as a cognitive function evaluation technique, a Y-maze test and a passive avoidance experiment, which are general and representative methods, were used, and in order to objectify the efficacy levels of the compounds, a group administered with donepezil (Aricept, Eisa) as a positive control material was separately provided to compare the efficacy levels of the compounds.
(§2) In order to evaluate cognitive function, 5-week-old male ICR mice were used, the compounds to be evaluated were prepared at a dose of 50 mg/kg/ml and repeatedly orally administered at a predetermined time for 7 days, and the positive control material was carried out at 5 mg/kg/ml. After the last administration, after 30 minutes of intraperitoneal administration of 1 mg/kg/2 ml of scopolamine, a Y-maze test and a passive avoidance test, which are cognitive function evaluations, were performed.
The Y-maze test is a method for evaluating the ability to sequentially act as an experiment for measuring short-term memory. The measurement equipment is composed of three branches, each branch has a length of 42 cm, a width of 3 cm, and a height of 12 cm, and an angle at which three branches are folded is 120°. Experimental animals are put into each branch for 8 minutes, and the number of times of entering the branches to the tail of the experimental animal and the case of being sequentially received in each branch are scored (actual alternation). The alternation behavior is defined as entering not to overlap all three, and is calculated by the following equation. [formula]

male ICR mice [2] = assay: Scopolamine-induced cognitive impairment model: passive avoidance test (PAT); assay type: in vivo; settings: for percent recovery of memory in passive avoidance test (normal group = 100, scopolamine control = 0) at 50 mg/kg: Mus musculus, po, 168 h, read-out: in vivo(effect) PAT (%); for in vivo PAT: time staying in bright room (step-through latency), scopolamine 1 mg/kg i.p., compounds 50 mg/kg oral for 7 days, donepezil 5 mg/kg (avg.); for cognitive function recovery compared to normal animals, passive avoidance test (effect %): compounds 50 mg/kg, donepezil 5 mg/kg, orally for 7 days, scopolamine 1 mg/kg intraperitoneal
Text: as §1, §2
In addition, the passive avoidance test was conducted using an avoidance learning box (Jeondo B&P, Korea, Seoul), and the avoidance learning box is divided into a dark room and a bright room, and when a laboratory animal is put into a bright room, the subject goes beyond the dark room. At the moment, an electric shock of 0.5 mA is applied for 5 seconds, and when the next day experimental animal is put back into a bright room, an electric shock in a dark room is memorized and stay in a bright room. In this case, a step-through latency is measured to evaluate memory. The efficacy of the compounds of the present invention against the normal group and the control group in the Y-maze test and the passive avoidance test was described in the following Table 3 (Scopolamine-induced cognitive impairment model result).

[3] = HEK293, fold increase of HRE expression, hypoxic conditions (O2 0.1%) 18 hours, Table 2, read-out: HRE-increasing 10uM
[4] = HEK293, fold increase of HRE expression, hypoxic conditions (O2 0.1%) 18 hours, Table 2, read-out: HRE-increasing 100uM
[5] = read-out: in vivo(effect) Y-maze (%)
[6] = read-out: cognitive function recovery compared to normal animals, Y-maze experiment (effect %)

SMILES	fold induction at 10 µM (HRE/Luc/HEK293 cells; [3])	fold induction at 100 µM (HRE/Luc/HEK293 cells; [4])	HRE assay (HRE/Luc/HEK293 cells)	percent recovery of cognitive function (Y-maze) at 50 mg/kg (male ICR mice [1]; [5]) [%]	in vivo Y-maze (%) (male ICR mice [1])	percent recovery of memory in passive avoidance test (normal group = 100, scopolamine control = 0) at 50 mg/kg (male ICR mice [2]) [%]	in vivo PAT (male ICR mice [2]) [s]	percent recovery of cognitive function (Y-maze) at 50 mg/kg (male ICR mice [1]; [6]) [%]	HRE expression (HRE/Luc/HEK293 cells; concentration of 10 µM)	cognitive function recovery compared to normal animals, passive avoidance test (effect %) (male ICR mice [2]) [%]	fold induction at 10 µM (HRE/Luc/HEK293 cells; HEK293, 18 h, Table 2 (Examples 37-74, 52), read-out: HKt-increasing 10uM)	fold induction at 100 µM (HRE/Luc/HEK293 cells; HEK293, 18 h, Table 2 (Examples 37-74, 52), read-out: HKt-increasing 100uM)	HRE expression (HRE/Luc/HEK293 cells; low concentration of 1 µM)
O[C@@H]1[C@@H](O)[C@@H](Oc2ccc(Cc3ccc(Oc4ccccc4)cc3)cc2)OC[C@@H]1O [Example 9, (2R,3R,4S,5S)-2-(4-(4-phenoxybenzyl)phenoxy) tetrahydro-2H-pyran-3,4,5-triol]	1.2	< 1	•	9	57	32	127						
O[C@@H]1[C@@H](O)[C@@H](Oc2ccc(Cc3ccc(F)cc3)cc2)OC[C@@H]1O [Example 13, (2R,3R,4S,5S)-2-(4-(4-fluorobenzyl)phenoxy)tetrahydro-2H-pyran-3,4,5-triol]	1.4	2.4	••	17	57	37	149						
O[C@@H]1[C@@H](O)[C@@H](Oc2ccc(Cc3ccc(Cl)cc3)cc2)OC[C@@H]1O [Example 14, (2R,3R,4S,5S)-2-(4-(4-chlorobenzyl)phenoxy)tetrahydro-2H-pyran-3,4,5-triol]	1.9	2.5	••	7	57	33	129						
COc1cccc(Cc2ccc(O[C@H]3OC[C@H](O)[C@H](O)[C@H]3O)cc2)c1 [Example 15, (2R,3R,4S,5S)-2-(4-(3-methoxybenzyl)phenoxy)tetrahydro-2H-pyran-3,4,5-triol]	1.1	2.2		66	66	30	142	≥ 50					
COc1ccc2cc(Cc3ccc(O[C@H]4OC[C@H](O)[C@H](O)[C@H]4O)cc3)ccc2c1 [Example 20, ((2R,3R,4S,5S)-2-(4-(6-methoxynaphthalen-2-yl)methyl)phenoxy)tetrahydro-2H-pyran-3,4,5-triol]	1	1.1		61	69	38	142	≥ 50					
O[C@@H]1[C@@H](O)[C@@H](Oc2ccc(CC3CCCCC3)cc2)OC[C@@H]1O [Example 22, (2R,3R,4S,5S)-2-(4-(cyclohexylmethyl)phenoxy)tetrahydro-2H-pyran-3,4,5-triol]	2.5	2.8		56	65	36	145	≥ 50					
O[C@@H]1[C@@H](O)[C@@H](Oc2ccc(Cc3ccsc3)cc2)OC[C@@H]1O [Example 23, (2R,3R,4S,5S)-2-(4-(thiophen-3-ylmethyl)phenoxy)tetrahydro-2H-pyran-3,4,5-triol]	1.6	2.7		41	59	22	87						
CC(C)c1ccc(Cc2ccc(S[C@H]3OC[C@H](O)[C@H](O)C3O)cc2)cc1 (stereo partly drawn) [Example 27, (2R,4S,5S)-2-((4-(4-isopropylbenzyl)phenyl)thio) tetrahydro-2H-pyran-3,4,5-triol]	3.7	< 1		44	62	28	80		more than threefold				
COc1ccc(C(C)(C)c2ccc(O[C@H]3OC[C@H](O)[C@H](O)[C@H]3O)cc2)cc1 [Example 30, (2R,3R,4S,5S)-2-(4-(2-(4-methoxyphenyl)propan-2-yl)phenoxy)tetrahydro-2H-pyran-3,4,5-triol]	1.1	1.4		45	63	60	194			≥ 50			
CCOc1ccc(C(C)(C)c2ccc(O[C@H]3OC[C@H](O)[C@H](O)[C@H]3O)cc2)cc1 [Example 31, (2R,3R,4S,5S)-2-(4-(2-(4-ethoxyphenyl)propan-2-yl)phenoxy)tetrahydro-2H-pyran-3,4,5-triol]	1.1	1.6		71	68	65	204	≥ 50		≥ 50			
Cc1ccc(Oc2ccc(O[C@H]3OC[C@H](O)[C@H](O)[C@H]3O)cc2)cc1 [Example 33, (2R,3R,4S,5S)-2-(4-(para-tolyloxy)phenoxy) tetrahydro-2H-pyran-3,4,5-triol]	3.8	2.5		30	56	10	58		more than threefold				
CC(C)c1ccc(Oc2ccc(O[C@H]3OC[C@H](O)[C@H](O)[C@H]3O)cc2)cc1 [Example 35, (2R,3R,4S,5S)-2-(4-(4-isopropylphenoxy)phenoxy)tetrahydro-2H-pyran-3,4,5-triol]	3.7	< 1		41	59	45	141		more than threefold				
CC(C)(C)c1ccc(Oc2ccc(O[C@H]3OC[C@H](O)[C@H](O)[C@H]3O)cc2)cc1 [Example 36]	3.5	< 1		42	59	17	76		more than threefold				
CC(C)c1ccc(Cc2ccc(O[C@H]3OC[C@H](O)[C@H](O)[C@H]3O)c(F)c2)cc1 [Example 41, (2R,3R,4S,5S)-2-(2-fluoro-4-(4-isopropylbenzyl)phenoxy)tetrahydro-2H-pyran-3,4,5-triol]				54	59.8	16	69.6	≥ 50			3	3.2	more than threefold
